Measured values taken from ChEMBL document CHEMBL6127088, “Novel 2-aminothiazole analogues both as polymyxin E synergist and antimicrobial agent against multidrug-resistant Gram-positive bacteria” (2024).
≈ marks a conversion by molar mass, not a printed value. Calls of active or inactive are those of the source. The rule behind the calls is not given here.

What was measured:
Acinetobacter baumannii [1] = experiment: Antibacterial activity against Acinetobacter baumannii ATCC 19606 assessed as inhibition of bacterial growth at 16 microg/ml incubated for overnight by time-kill assay; format: functional, organism-based; conditions: dose 16.0 µg/ml
Klebsiella pneumoniae [2] = experiment: Synergistic antibacterial activity against Klebsiella pneumoniae KPN 943 assessed as fractional inhibitory concentration index at 4 microg/ml incubated for 18 to 20 hrs by chequerboard assay; format: functional; conditions: dose 4 µg/ml; time 18-20 hrs
Staphylococcus aureus [3] = experiment: Antibacterial activity against Staphylococcus aureus SF 8300 assessed as inhibition of bacterial growth incubated for 18 hrs by broth microdilution method; format: functional
Acinetobacter baumannii [4] = experiment: Synergistic antibacterial activity against Acinetobacter baumannii ATCC 19606 assessed as polymyxin-E MIC at 4 microg/ml incubated for 18 hrs by broth microdilution method; format: functional; conditions: dose 4 µg/ml
Cell membrane [5] = experiment: Induction of outer membrane disruption in Acinetobacter baumannii ATCC 19606 assessed as decrease in fluorescence intensity in presence of polymyxin-E by NPN dye based fluorescence analysis; format: subcellular
Staphylococcus aureus [6] = experiment: Antibacterial activity against methicillin-resistant Staphylococcus aureus ATCC 43300 assessed as inhibition of bacterial growth at 0.5 to 1 microg/ml incubated for 0 to 8 hrs by time-kill assay; format: functional, organism-based; conditions: dose 0.5-1 µg/ml, time 0-8 hrs
Klebsiella pneumoniae [7] = experiment: Synergistic antibacterial activity against Klebsiella pneumoniae SIPI-KPN-1712 assessed as fractional inhibitory concentration index at 4 microg/ml incubated for 18 to 20 hrs by chequerboard assay; format: functional; conditions: dose 4 µg/ml; time 18-20 hrs
Klebsiella pneumoniae [8] = experiment: Antibacterial activity against Klebsiella pneumoniae KPN 943 incubated for 18 hrs by broth microdilution method; format: functional
Staphylococcus aureus [9] = experiment: Antibacterial activity against Staphylococcus aureus LAC assessed as inhibition of bacterial growth incubated for 18 hrs by broth microdilution method; format: functional
Pseudomonas aeruginosa [10] = experiment: Synergistic antibacterial activity against Pseudomonas aeruginosa PAE 3887 assessed as fractional inhibitory concentration index at 4 microg/ml incubated for 18 to 20 hrs by chequerboard assay; format: functional; conditions: dose 4 µg/ml; time 18-20 hrs
Acinetobacter baumannii [11] = experiment: Synergistic antibacterial activity against Acinetobacter baumannii ATCC 19606 assessed as fold change in polymyxin-E MIC incubated for 18 hrs by broth microdilution method relative to polymyxin-E alone; format: functional
Cell membrane [12] = experiment: Disruption of cell membrane integrity in Acinetobacter baumannii ATCC 19606 assessed as reduction in nucleoid boundaries at 4 microg/ml incubated for 1 hrs in presence of polymyxin-E by TEM analysis; format: subcellular; set-up: scale not given: the % may be the effect or the level left; conditions: dose 4.0 µg/ml
Pseudomonas aeruginosa [13] = experiment: Synergistic antibacterial activity against Pseudomonas aeruginosa PAE 1051 assessed as fold change in polymyxin-E MIC incubated for 18 hrs by broth microdilution method relative to polymyxin-E alone; format: functional
Pseudomonas aeruginosa [14] = experiment: Antibacterial activity against Pseudomonas aeruginosa PAE 3887 incubated for 18 hrs by broth microdilution method; format: functional
Staphylococcus aureus [15] = experiment: Antibacterial activity against Staphylococcus aureus S1-1-1 assessed as inhibition of bacterial growth incubated for 18 hrs by broth microdilution method; format: functional
Cell membrane [16] = experiment: Disruption of cell membrane integrity in Acinetobacter baumannii ATCC 19606 assessed as displacement of outer membrane at 4 microg/ml incubated for 1 hrs by TEM analysis; format: subcellular; conditions: dose 4.0 µg/ml
Staphylococcus aureus [17] = experiment: Antibacterial activity against methicillin-resistant Staphylococcus aureus ATCC 43300 assessed as inhibition of bacterial growth at 0.5 to 1 microg/ml measured between 8 to 24 hrs by time-kill assay; format: functional, organism-based; conditions: dose 0.5-1 µg/ml, time 8-24 hrs
Acinetobacter baumannii [18] = experiment: Antibacterial activity against Acinetobacter baumannii ATCC 19606 assessed as inhibition of bacterial growth at 4 microg/ml incubated for overnight in presence of 0.25 microg/ml polymyxin-E and measured with in 8 hrs by time-kill assay; format: functional, organism-based; conditions: dose 4.0 µg/ml
Acinetobacter baumannii [19] = experiment: Synergistic antibacterial activity against Acinetobacter baumannii Ab 1613 assessed as polymyxin-E MIC at 4 microg/ml incubated for 18 hrs by broth microdilution method; format: functional; conditions: dose 4 µg/ml
Acinetobacter baumannii [20] = experiment: Antibacterial activity against Acinetobacter baumannii ATCC 19606 assessed as inhibition of bacterial growth at 4 microg/ml incubated for overnight in presence of 0.25 microg/ml polymyxin-E and measured at 24 hrs by time-kill assay; format: functional, organism-based; conditions: dose 4.0 µg/ml
Cell membrane [21] = experiment: Disruption of cell membrane integrity in Acinetobacter baumannii ATCC 19606 assessed as cellular damage at 4 microg/ml incubated for 1 hrs by TEM analysis; conditions: dose 4.0 µg/ml
[22] = test system: Lacticaseibacillus rhamnosus; experiment: Antibacterial activity against Lactobacillus rhamnosus assessed as inhibition of bacterial growth incubated for 18 hrs by broth microdilution method; format: functional
Cell membrane [23] = experiment: Disruption of cell membrane integrity in Acinetobacter baumannii ATCC 19606 assessed as cellular vacuolization at 4 microg/ml incubated for 1 hrs in presence of polymyxin-E by TEM analysis; format: subcellular; conditions: dose 4.0 µg/ml
Klebsiella pneumoniae [24] = experiment: Synergistic antibacterial activity against Klebsiella pneumoniae SIPI-KPN-1712 assessed as polymyxin-E MIC at 4 microg/ml incubated for 18 hrs by broth microdilution method; format: functional; conditions: dose 4 µg/ml
Klebsiella pneumoniae [25] = experiment: Synergistic antibacterial activity against Klebsiella pneumoniae KPN 1617 assessed as fractional inhibitory concentration index at 4 microg/ml incubated for 18 to 20 hrs by chequerboard assay; format: functional; conditions: dose 4 µg/ml; time 18-20 hrs
Staphylococcus aureus [26] = experiment: Antibacterial activity against Staphylococcus aureus S1-1-33 assessed as inhibition of bacterial growth incubated for 18 hrs by broth microdilution method; format: functional
Acinetobacter baumannii [27] = experiment: Synergistic antibacterial activity against Acinetobacter baumannii ATCC 19606 assessed as fractional inhibitory concentration index at 4 microg/ml incubated for 18 to 20 hrs by chequerboard assay; format: functional; conditions: dose 4 µg/ml; time 18-20 hrs
Pseudomonas aeruginosa [28] = experiment: Synergistic antibacterial activity against Pseudomonas aeruginosa […] assessed as fractional inhibitory concentration index at 4 microg/ml incubated for 18 to 20 hrs by chequerboard assay; format: functional; conditions: dose 4 µg/ml; time 18-20 hrs
Cell membrane [29] = experiment: Induction of outer membrane disruption in Acinetobacter baumannii ATCC 19606 assessed as decrease in fluorescence intensity by NPN dye based fluorescence analysis; format: subcellular
Acinetobacter baumannii [30] = experiment: Antibacterial activity against Acinetobacter baumannii ATCC 19606 infected in female Balb/c mouse model assessed as increase in animal survival at 64 mg/kg, iv administered every 12 hrs and measured for 7 days; format: functional, organism-based
Pseudomonas aeruginosa [31] = experiment: Synergistic antibacterial activity against Pseudomonas aeruginosa PAE 1051 assessed as polymyxin-E MIC at 4 microg/ml incubated for 18 hrs by broth microdilution method; format: functional; conditions: dose 4 µg/ml
Pseudomonas aeruginosa [32] = experiment: Synergistic antibacterial activity against Pseudomonas aeruginosa […] assessed as fold change in polymyxin-E MIC incubated for 18 hrs by broth microdilution method relative to polymyxin-E alone; format: functional
Klebsiella pneumoniae [33] = experiment: Antibacterial activity against Klebsiella pneumoniae SIPI-KPN-1712 incubated for 18 hrs by broth microdilution method; format: functional
[34] = test system: Mycolicibacterium smegmatis; experiment: Antibacterial activity against Mycobacterium smegmatis ATCC 704 assessed as inhibition of bacterial growth incubated for 18 hrs by broth microdilution method; format: functional
Cell membrane [35] = experiment: Disruption of cell membrane integrity in Acinetobacter baumannii ATCC 19606 assessed as cytoplasmic content leakage at 4 microg/ml incubated for 1 hrs in presence of polymyxin-E by TEM analysis; format: subcellular; conditions: dose 4.0 µg/ml
Acinetobacter baumannii [36] = experiment: Synergistic antimicrobial activity against Acinetobacter baumannii ATCC 19606 assessed as fractional inhibitory concentration index in presence of polymyxin E incubated for 18 to 20 hrs by chequerboard assay; format: functional; conditions: time 18-20 hrs
Acinetobacter baumannii [37] = experiment: Antibacterial activity against Acinetobacter baumannii Ab 1613 incubated for 18 hrs by broth microdilution method; format: functional

C/C(=N\Nc1ccccn1)c1csc(Nc2cc(F)cc(C(F)(F)F)c2)n1
Activity (Acinetobacter baumannii [1]): inactive
fractional inhibitory concentration index (FICI) (Klebsiella pneumoniae [2]): 0.062
MIC (Staphylococcus aureus [3]): 1 µg/mL (≈ 2.53 µM)
MIC (Acinetobacter baumannii [4]): 0.031 µg/mL
Activity (Cell membrane [5]): Active
Activity (Staphylococcus aureus [6]): Active
fractional inhibitory concentration index (FICI) (Klebsiella pneumoniae [7]): 0.094
MIC (Klebsiella pneumoniae [8]): > 128 µg/mL
MIC (Staphylococcus aureus [9]): 1 µg/mL (≈ 2.53 µM)
fractional inhibitory concentration index (FICI) (Pseudomonas aeruginosa [10]): 0.094
fold change (FC) (Acinetobacter baumannii [11]): 16
Activity (Cell membrane [12]): 100%
fold change (FC) (Pseudomonas aeruginosa [13]): 4
MIC (Pseudomonas aeruginosa [14]): > 128 µg/mL
MIC (Staphylococcus aureus [15]): 1 µg/mL (≈ 2.53 µM)
Activity (Cell membrane [16]): Active
Activity (Staphylococcus aureus [17]): inactive
Activity (Acinetobacter baumannii [18]): Active
MIC (Acinetobacter baumannii [19]): 0.125 µg/mL
Activity (Acinetobacter baumannii [20]): Active
Activity (Cell membrane [21]): Active
MIC [22]: 0.5 µg/mL (≈ 1.26 µM)
Activity (Cell membrane [23]): Active
MIC (Klebsiella pneumoniae [24]): 2 µg/mL
fractional inhibitory concentration index (FICI) (Klebsiella pneumoniae [25]): 0.094
MIC (Staphylococcus aureus [26]): 2 µg/mL (≈ 5.06 µM)
fractional inhibitory concentration index (FICI) (Acinetobacter baumannii [27]): 0.094
fractional inhibitory concentration index (FICI) (Pseudomonas aeruginosa [28]): 0.531
Activity (Cell membrane [29]): Active
Activity (Acinetobacter baumannii [30]): inactive
MIC (Pseudomonas aeruginosa [31]): 0.25 µg/mL
fold change (FC) (Pseudomonas aeruginosa [32]): 2
MIC (Klebsiella pneumoniae [33]): > 128 µg/mL
MIC [34]: 1 µg/mL (≈ 2.53 µM)
Activity (Cell membrane [35]): Active
fractional inhibitory concentration index (FICI) (Acinetobacter baumannii [36]): 0.066
MIC (Acinetobacter baumannii [37]): > 128 µg/mL
